Read-outs that look alike come from different tables or passages of the source.
Tests used:
[1] = molecular target: CT DNA; conditions: cited from earlier work
[2] = DPPH radical scavenging; conditions: compounds 0.1 mM, DPPH 0.1 mM in ethanol
Method: Antioxidant compounds able to neutralize DPPH radicals are increasingly recognized due to their capability of combating cancer, slowing down the aging process and regulating inflammation. As a result, they could potentially offer protection against rheumatoid arthritis and inflammation. […] In this experiment, NDGA and BHT were used as reference compounds and measurements took place at 30 min and 60 min. […] Such low scavenging activity of DPPH radicals is rather common for metal–NSAID complexes.
(§1) S1 Antioxidant activity assay
(§2) The antioxidant activity of the compound was evaluated via the ability to scavenge in vitro free radicals such as DPPH and ABTS and to reduce H2O2. All the experiments were carried out at least in triplicate and the standard deviation of absorbance was less than 10% […]
S1.1 Determination of the reducing activity of the radical DPPH
To an ethanolic solution of DPPH (0.1 mM) an equal volume solution of the compounds (0.1 mM) in ethanol was added. Absolute ethanol was also used as control solution. The absorbance at 517 nm was recorded at room temperature after 30 and 60 min in order to examine the possible existence of a potential time−dependence of the DPPH radical scavenging activity.[1] The DPPH−scavenging activity of the compounds was expressed as the percentage reduction of the absorbance values of the initial DPPH solution (DPPH%). NDGA and BHT were used as reference compounds. […]

[3] = Reduction of hydrogen peroxide; conditions: compounds 0.1 mM; phosphate buffer pH 7.4; 10 min
Method: Harmful hydroxyl radicals are released when hydrogen peroxide interacts with transition metal ions, leading to oxidative stress. Consequently, both oxidative stress and the production of reactive oxygen species could be reduced by ^•OH scavengers and H2O2 reducing agents.
as §1
The antioxidant activity of the compound was evaluated via the ability to scavenge in vitro free radicals such as DPPH and ABTS and to reduce H2O2. […]
S1.3 Reduction of hydrogen peroxide
The ability of the compounds to reduce hydrogen peroxide (H2O2) was estimated according to the method described in the literature. The reaction mixture contained 20 μL of each of the tested compounds (0.1 mM) and 5 μL H2O2 solution (40 mM) in phosphate […]
buffer (50 mM, pH 7.4). The absorbance was measured at 230 nm after 10 min. The antioxidant activity (reduction of H2O2) of the compounds was expressed as the percentage decrease of the initial H2O2 solution (H2O2%). […]

[4] = ABTS radical cation scavenging; conditions: compounds 0.1 mM; absorbance 734 nm after 1 min
Method: The ABTS-scavenging was measured through the discoloration of a dark green solution containing the cationic radical ABTS^•+, which was induced from the oxidation derived from hydrogen-donating antioxidants, either complexes or standards, and is often considered a marker of total oxidation capacity. […] Such an increase in activity upon coordination is expected for metal–NSAID complexes.
as §1, §2
S1.2 Assay of radical cation ABTS−scavenging activity
The ABTS assay was performed to determine the activity of the compounds to scavenge the radical cation ABTS. Initially, a water solution of ABTS was prepared (2 mM).
ABTS radical cation (ABTS+·) was produced by the reaction of ABTS stock solution with potassium persulfate (0.17 mM) and the mixture was stored in the dark at room temperature for 12−16 h before its use. The ABTS was oxidized incompletely because the stoichiometric reaction ratio of ABTS and potassium persulfate is 1:0.5. The absorbance became maximal and stable only after more than 6 h of reaction although the oxidation of the ABTS started immediately. The radical was stable in this form for more than 2 days when allowed to stand in the dark at room temperature. Afterwards, the ABTS+· solution was diluted in ethanol to an absorbance of 0.70 at 734 nm and 10 μL of diluted compounds or standards (0.1 mM) in DMSO were added. The absorbance was recorded out exactly 1 min after initial mixing.
The ABTS–radical scavenging activity of the compounds was expressed as the percentage inhibition of the absorbance of the initial ABTS solution (ABTS%). […]

[5] = commercially available fenamates

In the case of `Cc1cccc(Nc2ccccc2C(=O)O)c1C` [mefenamic acid], the “DNA-binding constant Kb” value [1, 5] is given as 105000 M⁻¹.

With `CC(Cc1ccc(O)c(O)c1)C(C)Cc1ccc(O)c(O)c1` (stereo not shown) [NDGA, nordihydroguaiaretic acid, reference compound] the “%DPPH-scavenging ability (DPPH%), 30 min” value [2] was 94.33 ± 0.11% and the “%DPPH-scavenging ability (DPPH%), 60 min” value [2] was 90.47 ± 0.42%.

In the case of `O=C1O[C@H]([C@@H](O)CO)C(O)=C1O` [L-ascorbic acid, reference compound], the “H2O2-reducing ability (H2O2%)” value [3] is reported as 58.90 ± 0.52%.

For `Cc1cc(C(C)(C)C)c(O)c(C(C)(C)C)c1` [BHT, butylated hydroxytoluene, reference compound], the “%DPPH-scavenging ability (DPPH%), 30 min” value [2] was 70.83 ± 0.03% and the “%DPPH-scavenging ability (DPPH%), 60 min” value [2] was 83.39 ± 0.39%.

In the case of `CC[n+]1c(-c2ccccc2)c2cc(N)ccc2c2ccc(N)cc21` [EB, ethidium bromide], the “DNA-binding constant Kb” value ([1]; classic DNA intercalator) is given as 123000 M⁻¹.

In the case of `Cc1c(C)c2c(c(C)c1O)CCC(C)(C(=O)O)O2` (stereo not shown) [Trolox, 6–hydroxy–2,5,7,8–tetramethylchroman–2–carboxylic acid, reference compound], the “%ABTS radical scavenging activity (ABTS%)” value [4] is reported as 96.50 ± 0.05%.

For `O=C(O)c1ccccc1Nc1cccc(C(F)(F)F)c1` [flufenamic acid], the “DNA-binding constant Kb” value [1, 5] is listed as 270000 M⁻¹.

In the case of `Cc1c(Cl)cccc1Nc1ccccc1C(=O)O` [tolfenamic acid], the “DNA-binding constant Kb” value [1, 5] is given as 50000 M⁻¹.

Source: article PMC12195967, “Cobalt(II) Complexes of 4′–Nitro–Fenamic Acid: Characterization and Biological Evaluation” (Molecules, 2025)
